Values quoted from earlier work, collected in patent publication US12521383B2 (Slayback Pharma LLC, priority 2022, dated 2026).

Conditions: in water, pH independent solubility profile

aqueous solubility: 40 to 50 µg/mL
Structure (SMILES): COc1ccc(-n2nc(C(N)=O)c3c2C(=O)N(c2ccc(N4CCCCC4=O)cc2)CC3)cc1 [apixaban, 1-(4-methoxyphenyl)-7-oxo-6-[4-(2-oxopiperidin-1-yl)phenyl]-4,5-dihydropyrazolo [3,4-c] pyridine-3-carboxamide]
